Experimental data taken from patent US8557812B2, “Small molecule inhibitors of anti-apoptotic BCL-2 family members and the uses thereof” (The Regents of the University of Michigan, priority 2004, dated 2013).

Tests used:
MDA-MB-231 (2LMP) cells = experiment: Cell growth of MDA-MB-231 (2LMP) cells (WST); type: cell-based; details: Homo sapiens, read-out: IC50 of cell growth inhibition
human Bcl-xL = human Bcl-xL (Homo sapiens, UniProt Q07817); experiment: Fluorescence polarization in vitro Bcl-xL binding assay; details: displacement of Flu-Bak peptide
Chain of human Bcl-xL (Q07817 1-209 limits assumed): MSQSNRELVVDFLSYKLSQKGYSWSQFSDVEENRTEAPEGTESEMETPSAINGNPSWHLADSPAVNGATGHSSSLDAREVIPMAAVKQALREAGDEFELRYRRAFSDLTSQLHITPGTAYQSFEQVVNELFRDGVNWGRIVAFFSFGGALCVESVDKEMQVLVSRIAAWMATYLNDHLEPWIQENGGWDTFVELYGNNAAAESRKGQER
Source text: For determination of the binding affinity to Bcl-xL protein a human Bcl-xL recombinant His-tagged protein without the C-terminus hydrophobic tail and the Bak-16mer BH3 peptide labeled with 6-carboxyfluorescein succinimidyl ester (FAM) were used.

Bcl-2 = Bcl-2 (Homo sapiens, UniProt P10415); experiment: Fluorescence polarization in vitro Bcl-2 binding assay
Chain of Bcl-2 (P10415 92-205 limits assumed): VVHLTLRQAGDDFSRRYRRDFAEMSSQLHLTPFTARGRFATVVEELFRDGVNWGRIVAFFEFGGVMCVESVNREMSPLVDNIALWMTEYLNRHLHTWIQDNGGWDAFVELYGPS
Experimental: Bcl-2 used in this assay is a recombinant His-fused soluble protein. […] Inc., Research Triangle Park, N.C.). […] The unlabeled Bid peptide is used as the positive control. The Ki values were calculated using our developed equation for FP assay (Nikolovska-Coleska et al., Anal. Biochem., 2004, in press). The program for calculating a Ki value is available free of charge via the Internet at http://sw16.im.med.umich.edu/software/calc_ki/.

| IC50 (MDA-MB-231 (2LMP) cells) [µM] | IC50 (human Bcl-xL) [µM] | IC50 (Bcl-2) [µM] | Compound |
| --- | --- | --- | --- |
| 0.1 to 20 |  |  | CCCCCCc1cc(C(C)C)c(O)c(O)c1O [TM-103] |
| 0.1 to 20 |  |  | CCCCCC(=O)c1cc(C(C)C)c(O)c(O)c1O [TM-104] |
| 0.1 to 20 |  |  | CCCCCCCCCCCCCCCc1cc(C(C)C)c(O)c(O)c1O [TM-109] |
| 0.1 to 20 |  |  | CCCCCCCCCCCCCCC(=O)c1cc(C(C)C)c(O)c(O)c1O [TM-110] |
| > 20 |  |  | CCCCCCCCCCC(=O)c1cc(C(CCCCCCCCCC)c2ccccc2)c(O)c(O)c1O (stereo not shown) [TM-124] |
| 0.1 to 20 |  |  | CCCCCCCCCCC(c1ccccc1)c1cc(Cc2ccc(Br)cc2)c(O)c(O)c1O (stereo not shown) [TM-125] |
| 0.1 to 20 |  |  | CC(C)c1ccc(C(=O)c2cc(CCCc3ccccc3)c(O)c(O)c2O)cc1 [TM-126] |
| 0.1 to 20 |  |  | O=C(c1ccc(Br)cc1)c1cc(CCCc2ccccc2)c(O)c(O)c1O [TM-128] |
| 0.1 to 20 |  |  | CCCCCCCCCCCc1cc(O)c(O)c(O)c1CCCc1ccccc1 [TM-130] |
| 0.1 to 20 |  |  | CC(C)Cc1ccc(Cc2cc(CCCc3ccccc3)c(O)c(O)c2O)cc1 [TM-132] |
| 0.1 to 20 |  |  | CC(C)Cc1ccc(Cc2cc(CCCC3CCCCC3)c(O)c(O)c2O)cc1 [TM-134] |
| 0.1 to 20 |  |  | O=C(c1ccc(Cc2cc(CCCc3ccccc3)c(O)c(O)c2O)cc1)c1cccc(O)c1O [TM-135] |
| 0.1 to 20 |  |  | Oc1cccc(Cc2ccc(Cc3cc(CCCC4CCCCC4)c(O)c(O)c3O)cc2)c1O [TM-136] |
| 0.1 to 20 |  |  | O=C(c1cccc(Br)c1)c1cc(CCCc2ccccc2)c(O)c(O)c1O [TM-137] |
| > 20 |  |  | Cc1cc(C(=O)c2cc(Cc3ccccc3)c(O)c(O)c2O)c(C(C)C)cc1O [TM-143] |
|  | > 1 | > 1 | O=C(c1cc(C(=O)c2cccc3ccccc23)c(O)c(O)c1O)c1cccc2ccccc12 [TM-174] |
|  | > 1 | > 1 | O=C(c1ccc2ccccc2c1)c1cc(C(=O)c2ccc3ccccc3c2)c(O)c(O)c1O [TM-175] |
|  | > 1 | > 1 | O=C(c1cc(C(=O)C2N=C3C=CC=CC3S2)c(O)c(O)c1O)C1N=C2C=CC=CC2S1 (stereo not shown) [TM-176] |
|  | > 1 | > 1 | COc1c(C(=O)C2N=C3C=CC=CC3S2)cc(C(=O)C2N=C3C=CC=CC3S2)c(O)c1O (stereo not shown) [TM-178] |
|  | > 1 |  | O=C(c1ccc(Oc2ccccc2)cc1)c1cc(C(=O)c2nc3ccccc3s2)c(O)c(O)c1O [TM-179] |
|  | > 1 |  | O=C(c1ccc(Oc2ccc(S(=O)(=O)N3CCCCC3)c(Cl)c2)cc1)c1cc(C(=O)c2nc3ccccc3s2)c(O)c(O)c1O [TM-180] |
|  | > 1 |  | O=C(c1ccc(Oc2ccccc2)cc1)c1cc(C(=O)c2nc3ccccc3o2)c(O)c(O)c1O [TM-183] |
|  | > 1 | ≤ 1 | O=C(c1cc(S(=O)(=O)N2CCc3ccc(S(=O)(=O)N4CCCCC4)cc3C2)c(O)c(O)c1O)N1CCc2ccccc2C1 [TM-190] |
|  | > 1 | ≤ 1 | O=C(NCc1ccccc1)c1cc(S(=O)(=O)N2CCc3ccc(S(=O)(=O)N4CCCCC4)cc3C2)c(O)c(O)c1O [TM-192] |

| IC50 (MDA-MB-231 (2LMP) cells) [µM] | IC50 (human Bcl-xL) [µM] | IC50 (Bcl-2) [µM] | Compound |
| --- | --- | --- | --- |
|  | > 1 | > 1 | O=C(c1cc(S(=O)(=O)N2CCc3ccccc3C2)c(O)c(O)c1O)N1CCc2ccc(S(=O)(=O)N3CCCCC3)cc2C1 [TM-193] |
|  | > 1 | > 1 | CC(C)CNS(=O)(=O)c1ccc2c(c1)CN(C(=O)c1cc(S(=O)(=O)N3CCc4ccccc4C3)c(O)c(O)c1O)CC2 [TM-194] |
|  | > 1 | > 1 | O=C(c1cc(S(=O)(=O)N2CCc3ccccc3C2)c(O)c(O)c1O)N1CCc2ccc(S(=O)(=O)Nc3ccccc3)cc2C1 [TM-195] |
|  | > 1 | > 1 | O=C(c1cc(S(=O)(=O)N2CCc3ccccc3C2)c(O)c(O)c1O)N1CCc2ccc(S(=O)(=O)NCc3ccccc3)cc2C1 [TM-196] |
|  | > 1 | ≤ 1 | O=C(c1cc(S(=O)(=O)N2CCc3ccccc3C2)c(O)c(O)c1O)N1CCc2ccc(S(=O)(=O)NCCc3ccccc3)cc2C1 [TM-197] |
|  | > 1 | > 1 | O=C(c1cc(S(=O)(=O)N2CCc3ccccc3C2)c(O)c(O)c1O)N1CCc2ccc(S(=O)(=O)NCC(c3ccccc3)c3ccccc3)cc2C1 [TM-198] |
|  | > 1 | > 1 | NC(=O)[C@H](Cc1ccccc1)NS(=O)(=O)c1ccc2c(c1)CN(C(=O)c1cc(S(=O)(=O)N3CCc4ccccc4C3)c(O)c(O)c1O)CC2 [TM-199] |
|  | > 1 | > 1 | O=C(c1cc(S(=O)(=O)N2CCc3ccccc3C2)c(O)c(O)c1O)N1CCc2ccc(S(=O)(=O)N[C@@H](Cc3ccccc3)C(=O)N3CCCCC3)cc2C1 [TM-1200] |
|  | > 1 | > 1 | CN(Cc1ccccc1)S(=O)(=O)c1cc(C(=O)N2CCc3ccc(S(=O)(=O)NCCc4ccccc4)cc3C2)c(O)c(O)c1O [TM-1201] |
|  | > 1 | > 1 | O=C(c1cc(S(=O)(=O)N2CCc3ccccc3C2)c(O)c(O)c1O)N1CCc2ccc(S(=O)(=O)N[C@@H](Cc3ccccc3)C(=O)N3CCN(C(=O)C(F)(F)F)CC3)cc2C1 [TM-1202] |
|  | > 1 | ≤ 1 | O=C(c1cc(S(=O)(=O)N2CCc3ccccc3C2)c(O)c(O)c1O)N1CCc2ccc(S(=O)(=O)N3CCC(Cc4ccccc4)CC3)cc2C1 [TM-1203] |
|  | > 1 | ≤ 1 | CN(CCc1ccccc1)S(=O)(=O)c1cc(C(=O)N2CCc3ccc(S(=O)(=O)NCCc4ccccc4)cc3C2)c(O)c(O)c1O [TM-1205] |
|  | > 1 | ≤ 1 | CN(CCc1ccccc1)S(=O)(=O)c1ccc2c(c1)CN(C(=O)c1cc(S(=O)(=O)N3CCc4ccccc4C3)c(O)c(O)c1O)CC2 [TM-1207] |
|  | > 1 | ≤ 1 | O=C(c1cc(S(=O)(=O)N2CCc3ccccc3C2)c(O)c(O)c1O)N1CCc2ccc(S(=O)(=O)NCCc3cccc(Cl)c3)cc2C1 [TM-1208] |
|  | > 1 | ≤ 1 | O=C(c1cc(S(=O)(=O)N2CCc3ccccc3C2)c(O)c(O)c1O)N1CCc2ccc(S(=O)(=O)NCCc3ccc(Cl)cc3)cc2C1 [TM-1209] |
|  | > 1 | ≤ 1 | NS(=O)(=O)c1ccc(CCNS(=O)(=O)c2ccc3c(c2)CN(C(=O)c2cc(S(=O)(=O)N4CCc5ccccc5C4)c(O)c(O)c2O)CC3)cc1 [TM-1210] |
|  | > 1 | ≤ 1 | O=C(c1cc(S(=O)(=O)N2CCc3ccccc3C2)c(O)c(O)c1O)N1CCc2ccc(S(=O)(=O)NCCc3cccc(Oc4ccccc4)c3)cc2C1 [TM-1211] |
|  | > 1 | > 1 | O=C(c1cc(S(=O)(=O)N2CCc3ccccc3C2)c(O)c(O)c1O)N1CCc2ccc(S(=O)(=O)NCCc3ccc(Oc4ccccc4)cc3)cc2C1 [TM-1212] |
|  | > 1 | ≤ 1 | O=C(c1cc(S(=O)(=O)N2CCc3ccccc3C2)c(O)c(O)c1O)N1CCc2ccc(S(=O)(=O)NCCCc3ccccc3)cc2C1 [TM-1213] |
|  | > 1 | > 1 | O=C(c1cc(S(=O)(=O)N2CCc3ccccc3C2)c(O)c(O)c1O)N1CCc2ccccc2C1 [TM-1214] |
|  | > 1 | > 1 | CNS(=O)(=O)c1ccc2c(c1)CN(C(=O)c1cc(S(=O)(=O)N3CCc4ccccc4C3)c(O)c(O)c1O)CC2 [TM-1215] |
|  | > 1 | ≤ 1 | CCC(CC)CNS(=O)(=O)c1ccc2c(c1)CN(C(=O)c1cc(S(=O)(=O)N3CCc4ccccc4C3)c(O)c(O)c1O)CC2 [TM-1216] |
|  | > 1 | > 1 | CNS(=O)(=O)c1cc(C(=O)N2CCc3ccc(S(=O)(=O)NCCc4ccccc4)cc3C2)c(O)c(O)c1O [TM-1217] |
